Tests used:
MAP2 = MAP2 (Homo sapiens, UniProt P11137); assay: Binding by displacement of PREG-3H
PC12 cells = assay: Stimulation of neuritic sprouting in NGF-differentiated PC12 cells; assay type: cell-based; settings: NGF 10 ng/ml, steroid 30 μM, 3 days, relative to PREG
Experimental: Stimulation of neuritic sprouting is conducted on PC12 cells differentiated in the presence of NGF (10 ng/ml) and the steroid being tested (30 μM) for 3 days. For each condition, the average length of the longest 200 neurites in each cell is measured simultaneously for 3 cultures.

[1] = biological target: purified tubulin and MAP2 (Homo sapiens, UniProt P11137); assay: Increase in optical density at 345 nm of purified tubulin and MAP2 (microtubule polymerization); assay type: biochemical; settings: 37° C., GTP
Experimental: Activity is measured by the increase in optical density at 345 nm of a mixture of purified tubulin and MAP2, incubated at 37° C. in the presence of GTP.

[2] = biological target: T1, human progesterone receptor(PR) (Homo sapiens, UniProt P06401); assay: Progesterone receptor agonist transactivation (MMTV-luciferase) in transfected HEK293T cells; assay type: cell-based; settings: 24 hours, increasing amounts, FIG. 1
T1 construct: expressed in transfected cells; host or cells: HEK293T
T1 sequence (P06401 1-933): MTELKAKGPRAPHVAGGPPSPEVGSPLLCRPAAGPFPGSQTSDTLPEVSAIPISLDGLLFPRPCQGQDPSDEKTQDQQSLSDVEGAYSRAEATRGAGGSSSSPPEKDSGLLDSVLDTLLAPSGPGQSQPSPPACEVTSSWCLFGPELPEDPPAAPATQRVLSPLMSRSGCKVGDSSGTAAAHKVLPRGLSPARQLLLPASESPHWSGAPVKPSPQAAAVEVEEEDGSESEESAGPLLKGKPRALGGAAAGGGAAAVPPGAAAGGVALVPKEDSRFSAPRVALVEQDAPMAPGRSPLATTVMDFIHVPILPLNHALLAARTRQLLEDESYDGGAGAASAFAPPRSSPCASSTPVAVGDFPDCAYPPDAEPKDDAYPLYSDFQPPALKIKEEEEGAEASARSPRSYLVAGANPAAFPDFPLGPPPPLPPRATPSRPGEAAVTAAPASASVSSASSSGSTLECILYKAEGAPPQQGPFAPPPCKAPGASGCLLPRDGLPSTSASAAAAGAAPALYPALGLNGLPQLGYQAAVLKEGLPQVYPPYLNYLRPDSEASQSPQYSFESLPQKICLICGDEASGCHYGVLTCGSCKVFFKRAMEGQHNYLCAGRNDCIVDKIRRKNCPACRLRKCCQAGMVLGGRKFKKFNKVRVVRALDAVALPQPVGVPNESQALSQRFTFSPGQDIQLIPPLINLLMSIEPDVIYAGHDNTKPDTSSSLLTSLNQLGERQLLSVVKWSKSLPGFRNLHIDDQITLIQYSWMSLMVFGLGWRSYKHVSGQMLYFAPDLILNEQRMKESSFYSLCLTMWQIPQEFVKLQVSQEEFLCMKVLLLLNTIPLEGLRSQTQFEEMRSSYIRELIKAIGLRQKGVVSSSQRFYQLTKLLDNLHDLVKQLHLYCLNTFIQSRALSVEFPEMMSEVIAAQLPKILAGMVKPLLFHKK
Experimental: The main experimental setting used is the following: HEK293T cells were transiently transfected, using calcium phosphate precipitation technology, with expression vectors pSG5hPR (which permits expression of human progesterone receptor(PR)), pFC31-luc (contains the luciferase gene under the control of the MMTV promoter, which is in turn activated by binding of a progestin to progesterone receptor) and pcbetagal (which permits expression of betagalactosidase), and cultured during 24 hours with increasing amounts of various compositions: • 1. […] Test of progesterone receptor […] activity: transfected cells were cultured with progesterone (1 nM) and increasing amounts of RU486 (a well-known progesterone receptor antagonist) or 3-methoxy-pregnenolone. • With this setting, a compound with progesterone receptor antagonist activity competes with progesterone for the occupation of progesterone receptor and results in a progressive loss of transactivation activity when the amount of this compound is increased compared to progesterone.

Sequence of MAP2 (P11137 whole entry): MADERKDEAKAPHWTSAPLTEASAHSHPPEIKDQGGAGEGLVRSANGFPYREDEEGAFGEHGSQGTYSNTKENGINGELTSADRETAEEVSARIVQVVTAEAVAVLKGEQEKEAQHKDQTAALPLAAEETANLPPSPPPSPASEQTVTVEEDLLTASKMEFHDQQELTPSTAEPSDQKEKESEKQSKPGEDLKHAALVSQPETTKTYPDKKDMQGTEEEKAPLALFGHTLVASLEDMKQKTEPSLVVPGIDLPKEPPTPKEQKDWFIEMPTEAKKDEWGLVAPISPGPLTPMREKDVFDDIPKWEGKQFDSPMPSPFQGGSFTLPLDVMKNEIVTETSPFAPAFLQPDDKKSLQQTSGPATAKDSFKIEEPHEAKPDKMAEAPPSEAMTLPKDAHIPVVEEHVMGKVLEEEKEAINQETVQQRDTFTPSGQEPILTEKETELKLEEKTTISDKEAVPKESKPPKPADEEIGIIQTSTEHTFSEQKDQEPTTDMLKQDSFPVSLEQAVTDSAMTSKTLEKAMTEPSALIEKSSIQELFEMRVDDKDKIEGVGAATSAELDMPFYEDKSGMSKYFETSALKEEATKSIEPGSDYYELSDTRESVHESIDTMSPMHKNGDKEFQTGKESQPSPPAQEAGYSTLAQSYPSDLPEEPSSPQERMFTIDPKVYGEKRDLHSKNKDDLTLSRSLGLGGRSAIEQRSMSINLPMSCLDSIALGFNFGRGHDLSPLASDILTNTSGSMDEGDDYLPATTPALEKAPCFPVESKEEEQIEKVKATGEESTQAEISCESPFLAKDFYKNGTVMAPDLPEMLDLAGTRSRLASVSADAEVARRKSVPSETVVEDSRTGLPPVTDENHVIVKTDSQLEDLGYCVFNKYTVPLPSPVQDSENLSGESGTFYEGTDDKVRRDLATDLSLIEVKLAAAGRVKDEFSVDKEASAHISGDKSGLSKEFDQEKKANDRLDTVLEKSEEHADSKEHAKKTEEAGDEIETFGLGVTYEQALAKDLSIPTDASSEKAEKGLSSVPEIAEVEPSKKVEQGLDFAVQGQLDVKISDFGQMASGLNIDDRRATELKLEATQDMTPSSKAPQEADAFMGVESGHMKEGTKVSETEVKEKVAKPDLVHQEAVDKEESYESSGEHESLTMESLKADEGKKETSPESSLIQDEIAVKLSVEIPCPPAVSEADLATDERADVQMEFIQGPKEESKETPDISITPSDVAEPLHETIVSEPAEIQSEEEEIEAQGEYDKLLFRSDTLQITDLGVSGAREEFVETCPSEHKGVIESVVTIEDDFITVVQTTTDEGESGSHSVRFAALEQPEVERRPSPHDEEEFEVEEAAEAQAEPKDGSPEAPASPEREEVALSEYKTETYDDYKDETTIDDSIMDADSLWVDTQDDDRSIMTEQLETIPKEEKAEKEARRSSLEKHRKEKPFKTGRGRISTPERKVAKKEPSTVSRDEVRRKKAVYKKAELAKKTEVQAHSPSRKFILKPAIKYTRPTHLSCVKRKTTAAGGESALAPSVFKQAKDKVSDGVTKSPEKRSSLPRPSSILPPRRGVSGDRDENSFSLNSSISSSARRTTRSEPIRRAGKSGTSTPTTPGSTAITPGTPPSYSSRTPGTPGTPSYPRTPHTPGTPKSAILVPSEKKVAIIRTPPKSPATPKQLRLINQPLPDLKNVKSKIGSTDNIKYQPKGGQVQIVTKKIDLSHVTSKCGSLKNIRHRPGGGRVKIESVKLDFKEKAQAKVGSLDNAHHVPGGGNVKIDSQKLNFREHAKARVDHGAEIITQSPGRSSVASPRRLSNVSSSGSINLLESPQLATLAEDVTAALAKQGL
Sequence of purified tubulin and MAP2 (P11137 whole entry): as above

| Compound | Affinity (index of binding, percent of PREG) (MAP2) | Neuritic sprouting (PC12 cells) | Activity (percent of PREG) [1] | progesterone receptor agonist activity (transactivation, luciferase expression) [2] |
| --- | --- | --- | --- | --- |
| CO[C@H]1CC[C@@]2(C)[C@@H](CC[C@@H]3[C@@H]2CC[C@]2(C)[C@@H](C(C)=O)CC[C@@H]32)C1 [3B-methoxy-5a-pregnane-20-one, 3β-methoxy-5α-pregnane-20-one] | 87% of PREG | +++ | 10% of PREG |  |
| CO[C@H]1CC[C@@]2(C)C(CCC3C2CC[C@@]2(C)C3CC[C@@H]2[C@@H](C)O)C1 (stereo partly drawn) [3B-methoxy-5a-pregnane-20B-ol, 3β-methoxy-5α-pregnane-20β-ol] | 65% of PREG | ++ (equal to) | 65% of PREG |  |
| CO[C@H]1CC[C@@]2(C)C(=CC[C@H]3C4=CC[C@H](C(C)=O)[C@@]4(C)CC[C@@H]32)C1 [3B-methoxy-pregna-5,14-diene-20-one] | 102% of PREG | + (stimulation is lower than) | 50% of PREG |  |
| CO[C@H]1CC[C@@]2(C)C(=CC[C@@H]3[C@@H]2CC[C@@]2(C)[C@H]3CC[C@@]2(C(C)=O)C(Cl)Cl)C1 [3β-methoxy-pregna-5-ene-20-one-17α-dichloromethyl] | 53% of PREG |  | 113% of PREG |  |
| CC(=O)[C@H]1CC[C@H]2[C@@H]3CC=C4C[C@@H](O)CC[C@]4(C)[C@H]3CC[C@]12C [Pregnenolone (PREG), 3β-hydroxypregn-5-en-20-one, reference compound] | 100% of PREG |  | 100% of PREG |  |
| CC(=O)[C@H]1CC[C@H]2[C@@H]3CCC4=CC(=O)CC[C@]4(C)[C@H]3CC[C@]12C [progesterone, reference compound] |  |  |  | permits a transactivation activity leading to the expression of luciferase |
